Where no end group is shown, it is not given here. The star is where a group is joined. FITC = O=C1OC2(c3ccc(O)cc3Oc3cc(O)ccc32)c2ccc(NC(=S)*)cc21
What was measured:
[1] = molecular target: BAX (Homo sapiens, UniProt Q07812); assay: STD NMR; type: binding
[2] = molecular target: T1, BCL-2-associated X protein (BAX), recombinant, full-length, monomeric (human, UniProt Q07812 1-192); assay: fluorescence polarisation
[3] = molecular target: T1, BCL-2-associated X protein (BAX), …; assay: competition STD NMR

BAX, sequence (Q07812 whole entry): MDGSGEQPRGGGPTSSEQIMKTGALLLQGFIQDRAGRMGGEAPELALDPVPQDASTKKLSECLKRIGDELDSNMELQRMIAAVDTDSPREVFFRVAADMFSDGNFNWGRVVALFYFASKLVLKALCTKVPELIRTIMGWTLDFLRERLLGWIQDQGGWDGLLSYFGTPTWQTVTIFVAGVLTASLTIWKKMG
T1 sequence (Q07812 whole entry): as above

Molecule | STD NMR; liposomal release sensitization [1] | also measured
Oc1cccc(Oc2ccccc2)c1 [compound 2, 3-phenoxyphenol] | all retain BAX-binding activity as assessed by STD NMR, and demonstrate BAX-sensitization activity | 
Oc1ccc(Cc2ccccc2)cc1 [compound 3, 4-benzylphenol] | all retain BAX-binding activity as assessed by STD NMR, and demonstrate BAX-sensitization activity | 
Nc1ccc(Oc2ccccc2)cc1 [compound 4, 4-phenoxyaniline] | all retain BAX-binding activity as assessed by STD NMR, and demonstrate BAX-sensitization activity | 
{FITC}-EALKKALRRHRFLWQRRQRA [FITC-vMIA peptide (aa 131-150)] |  | binding result [2]: binds
EALKKALRRHRFLWQRRQRA [vMIA peptide (aa 131-150), as used in competition STD NMR] |  | binding result [3]: binds
